# Measurements: patent publication US5977133A, “Pyridone antibiotic with improved safety profile” (priority 1998, dated 1999)
# What was measured:
# S. pyogenes = test: In vitro MIC, agar dilution; format: cell-based; conditions: Streptococcus pyogenes
# S. pneumoniae (PenR) = test: In vitro MIC, agar dilution; format: cell-based; conditions: Streptococcus pneumoniae
# H. influenzae = test: In vitro MIC, agar dilution; format: cell-based; conditions: Haemophilus influenzae
# P. aeruginosa (CiproS) = test: In vitro MIC, agar dilution; format: cell-based; conditions: Pseudomonas aeruginosa
# H. pylori = test: In vitro MIC, agar dilution; format: cell-based; conditions: Helicobacter pylori
# E. faecium (VanS) = test: In vitro MIC, agar dilution; format: cell-based; conditions: Enterococcus faecium
# Klebsiella spp. = test: In vitro MIC, agar dilution; format: cell-based; conditions: Klebsiella
# [1] = tested on: ciprofloxacin resistant staphylococcal strains; test: In vitro MIC, agar dilution (summary in text); format: cell-based
# Escherichia coli JUHL = test: In vivo efficacy, mouse infection (ED50); conditions: Escherichia coli, in Mus musculus, 168 h
# S. epidermidis (CiproR) = test: In vitro MIC, agar dilution; format: cell-based; conditions: Staphylococcus epidermidis
# Shigella spp. = test: microbe, parasite or virus in culture; format: cell-based; conditions: read-out: MIC Range
# Legionella spp. = test: microbe, parasite or virus in culture; format: cell-based; conditions: Legionella
# S. aureus (CiproR) = test: In vitro MIC, agar dilution; format: cell-based; conditions: Staphylococcus aureus
# N. gonorrhoeae = test: In vitro MIC, agar dilution; format: cell-based; conditions: Neisseria gonorrhoeae
# Providencia spp. = test: In vitro MIC, agar dilution; format: cell-based
# S. pneumoniae (CiproR) = test: In vitro MIC, agar dilution; format: cell-based; conditions: Streptococcus pneumoniae, read-out: MIC Range
# Enterobacter spp. = test: In vitro MIC, agar dilution; format: cell-based; conditions: Enterobacter
# [2] = tested on: Streptococcus pneumoniae 6303; test: In vivo efficacy, mouse infection (ED50); conditions: Streptococcus pneumoniae, 6303, in Mus musculus, 168 h
# C. freundii = test: In vitro MIC, agar dilution; format: cell-based; conditions: Citrobacter freundii
# P. mirabilis = test: In vitro MIC, agar dilution; format: cell-based; conditions: Proteus mirabilis
# M. catarrhalis = test: In vitro MIC, agar dilution; format: cell-based; conditions: Moraxella catarrhalis
# C. difficile = test: In vitro MIC, agar dilution; format: cell-based; conditions: Clostridioides difficile
# Salmonella spp. = test: In vitro MIC, agar dilution; format: cell-based; conditions: 23 isolates
# Method: (§1) Each plate was inoculated with 1:100 (or 1:10 for slow-growing strains, primarily Micrococcus and Streptococcus) dilutions of up to 32 different microorganisms, using a Steers replicator block calibrated to deliver approximately 10^4 colony forming units (CFU's). The inoculated plates were incubated at from about 35° C. to about 37 ° C. for approximately 20-24 hours. In addition, a control plate using BHI agar containing no test compound was prepared and incubated at the beginning and at the end of each test. The quinolone antibacterial ciprofloxacin was used as a control ("Cntl").
# (§2) The numbers below the microorganism species indicate the nunbers of isolates tested. […] The MIC is defined as the lowest concentration of test compound yielding no growth (a slight haze or sparsely isolated colonies at the inoculum spot) as compared to the growth control containing no test compound.
# E. coli = test: In vitro MIC, agar dilution; format: cell-based; conditions: Escherichia coli, 25 isolates
# Method: as §1, §2
# [3] = tested on: staphylococcus aureus NTCC 10649; test: In vivo efficacy, mouse infection (ED50); conditions: Staphylococcus aureus, NTCC10649, in Mus musculus, 168 h
# E. faecium (CiproS) = test: In vitro MIC, agar dilution; format: cell-based; conditions: Enterococcus faecium
# S. pneumoniae (PenS) = test: In vitro MIC, agar dilution; format: cell-based; conditions: Streptococcus pneumoniae
# P. aeruginosa (CiproR) = test: In vitro MIC, agar dilution; format: cell-based
# E. faecalis (VanS) = test: In vitro MIC, agar dilution; format: cell-based; conditions: Enterococcus faecalis
# M. pneumoniae = test: In vitro MIC, agar dilution; format: cell-based; conditions: Mycoplasmoides pneumoniae, read-out: MIC Range
# M. avium = test: In vitro MIC, agar dilution; format: cell-based; conditions: Mycobacterium avium
# Enterococcus spp. (VanR) = test: In vitro MIC, agar dilution; format: cell-based; conditions: Enterococcus
# S. aureus (CiproS) = test: In vitro MIC, agar dilution; format: cell-based; conditions: Staphylococcus aureus
# S. epidermidis (CiproS) = test: In vitro MIC, agar dilution; format: cell-based; conditions: Staphylococcus epidermidis
# B. fragilis = test: In vitro MIC, agar dilution; format: cell-based; conditions: Bacteroides fragilis
structure (smiles),measurement,setting,value
"O=C(O)c1cn(C2CC2)c2cc(N3CCNCC3)c(F)cc2c1=O [Ciprofloxacin, ciprofloxacin]",MIC50,S. pyogenes,0.5 µg/mL
same,MIC90,S. pyogenes,1 µg/mL
same,MIC,S. pyogenes; read-out: MIC Range,0.25 to 4 µg/mL
same,MIC50,S. pneumoniae (PenR),2 µg/mL
same,MIC90,S. pneumoniae (PenR),2 µg/mL
same,MIC,S. pneumoniae (PenR); read-out: MIC Range,1 to 2 µg/mL
same,MIC50,H. influenzae,0.015 µg/mL
same,MIC90,H. influenzae,0.015 µg/mL
same,MIC,H. influenzae; read-out: MIC Range,0.008 to 0.015 µg/mL
same,MIC50,P. aeruginosa (CiproS),0.12 µg/mL
same,MIC90,P. aeruginosa (CiproS),0.5 µg/mL
same,MIC,P. aeruginosa (CiproS); read-out: MIC Range,0.06 to 2 µg/mL
same,MIC50,H. pylori,0.5 µg/mL
same,MIC90,H. pylori,0.5 µg/mL
same,MIC,H. pylori; read-out: MIC Range,0.12 to 0.5 µg/mL
same,MIC50,E. faecium (VanS),4 µg/mL
same,MIC90,E. faecium (VanS),4 µg/mL
same,MIC,E. faecium (VanS); read-out: MIC Range,1 to 4 µg/mL
same,MIC50,Klebsiella spp.,0.06 µg/mL
same,MIC90,Klebsiella spp.,0.12 µg/mL
same,MIC,Klebsiella spp.; read-out: MIC Range,0.004 to 0.5 µg/mL
same,MIC90,[1],> 128 µg/mL
same,ED50,Escherichia coli JUHL; po,4.1 mg/kg
same,ED50,Escherichia coli JUHL; sc,1 mg/kg
same,MIC50,S. epidermidis (CiproR),16 µg/mL
same,MIC90,S. epidermidis (CiproR),> 128 µg/mL
same,MIC,Shigella spp.,0.008 to 0.015 µg/mL
same,MIC50,Legionella spp.,0.25 µg/mL
same,MIC90,Legionella spp.,0.5 µg/mL
same,MIC,Legionella spp.; read-out: MIC Range,0.12 to 0.5 µg/mL
same,MIC50,S. aureus (CiproR),32 µg/mL
same,MIC90,S. aureus (CiproR),128 µg/mL
same,MIC50,N. gonorrhoeae,0.008 µg/mL
same,MIC90,N. gonorrhoeae,0.03 µg/mL
same,MIC,N. gonorrhoeae; read-out: MIC Range,0.004 to 0.12 µg/mL
same,MIC50,Providencia spp.; Providencia,0.03 µg/mL
same,MIC90,Providencia spp.; Providencia,0.25 µg/mL
same,MIC,"Providencia spp.; Providencia spp., 28 isolates, read-out: MIC Range",0.015 to 0.25 µg/mL
same,MIC,S. pneumoniae (CiproR),4 to 8 µg/mL
same,MIC50,Enterobacter spp.,0.015 µg/mL
same,MIC90,Enterobacter spp.,0.03 µg/mL
same,MIC,Enterobacter spp.; read-out: MIC Range,0.008 to 0.12 µg/mL
same,ED50,[2]; po,> 100 mg/kg
same,ED50,[2]; sc,> 50 mg/kg
same,MIC50,C. freundii,0.015 µg/mL
same,MIC90,C. freundii,0.12 µg/mL
same,MIC,C. freundii; read-out: MIC Range,0.004 to 0.5 µg/mL
same,MIC50,P. mirabilis,0.015 µg/mL
same,MIC90,P. mirabilis,0.03 µg/mL
same,MIC,P. mirabilis; read-out: MIC Range,0.015 to 0.06 µg/mL
same,MIC50,M. catarrhalis,0.03 µg/mL
same,MIC90,M. catarrhalis,0.06 µg/mL
same,MIC,M. catarrhalis; read-out: MIC Range,0.008 to 0.06 µg/mL
same,MIC50,C. difficile,16 µg/mL
same,MIC90,C. difficile,16 µg/mL
same,MIC,C. difficile; read-out: MIC Range,16 µg/mL
same,MIC,Salmonella spp.,0.004 to 0.5 µg/mL
same,MIC50,Salmonella spp.; read-out: MIC50,0.03 µg/mL
same,MIC90,Salmonella spp.; read-out: MIC90,0.03 µg/mL
same,MIC,E. coli,0.008 to 0.03 µg/mL
same,MIC50,E. coli; read-out: MIC50,0.03 µg/mL
same,MIC90,E. coli; read-out: MIC90,0.03 µg/mL
same,ED50,[3]; po,18.3 mg/kg
same,ED50,[3]; sc,3.1 mg/kg
same,MIC50,E. faecium (CiproS),2 µg/mL
same,MIC90,E. faecium (CiproS),4 µg/mL
same,MIC,E. faecium (CiproS); read-out: MIC Range,2 to 4 µg/mL
same,MIC50,S. pneumoniae (PenS),2 µg/mL
same,MIC90,S. pneumoniae (PenS),4 µg/mL
same,MIC,S. pneumoniae (PenS); read-out: MIC Range,1 to 8 µg/mL
same,MIC50,P. aeruginosa (CiproR); Pseudomonas aeruginosa,64 µg/mL
same,MIC90,P. aeruginosa (CiproR); Pseudomonas aeruginosa,128 µg/mL
same,MIC90,P. aeruginosa (CiproR); ciprofloxacin resistant P. aeruginosa strains,128 (g/mL
same,MIC50,E. faecalis (VanS),2 µg/mL
same,MIC90,E. faecalis (VanS),4 µg/mL
same,MIC,E. faecalis (VanS); read-out: MIC Range,1 to 4 µg/mL
same,MIC,M. pneumoniae,1 to 2 µg/mL
same,MIC50,M. avium,16 µg/mL
same,MIC90,M. avium,32 µg/mL
same,MIC50,Enterococcus spp. (VanR),4 µg/mL
same,MIC90,Enterococcus spp. (VanR),4 µg/mL
same,MIC50,S. aureus (CiproS),0.25 µg/mL
same,MIC90,S. aureus (CiproS),0.5 µg/mL
same,MIC,S. aureus (CiproS); read-out: MIC Range,0.06 to 0.5 µg/mL
same,MIC50,S. epidermidis (CiproS),0.25 µg/mL
same,MIC90,S. epidermidis (CiproS),0.25 µg/mL
same,MIC,S. epidermidis (CiproS); read-out: MIC Range,0.06 to 0.5 µg/mL
same,MIC50,B. fragilis,8 µg/mL
same,MIC90,B. fragilis,16 µg/mL
same,MIC,B. fragilis; read-out: MIC Range,4 to 32 µg/mL
